Experimental data reported in patent US20160081973A1, “ACTIVATOR OF MITOCHONDRIA” (FLORA CO., LTD., priority 2013, published 2016).

How the values were obtained:
Assay type in all cases: cell-based, human
HL60 cells [1] = test: Cell differentiation induction test, NBT reduction staining (differentiation into neutrophils); conditions: for differentiation ratio (ratio of NBT-stained cells): after 10 days of culture
Description: (§1) To each well of a 6-well plate, 1 mL of HL60 cells were plated at a concentration of 5×10^4 cells/mL, and a test substance at five serial concentrations (a 10-fold dilution series ranging from 10%) was added to the well at the same time as the plating. The cells in the plate were cultured for 5 days or 10 days under 5% […] at 37° C. The cell suspension in each well was recovered by centrifugation, and the number of cells, the NBT reducing capacity, and the esterase activity of the recovered cells were measured. In addition, changes in the karyotype of each cell was observed by Carrazzi's hematoxylin staining. The ratio of stained cells in each sample was measured to evaluate the differentiation induction capacity. The test was carried out in 5 replicates (n=5). A sample without addition of the test substance, and 0.1% ethyl alcohol (solvent control for the positive control) were used as negative controls, and retinoic acid (dissolved in ethyl alcohol; final concentration, 1 μM) and active vitamin D3 (dissolved in ethyl alcohol; final concentration, 10 nM) were used as positive controls. Details of each staining method are described below.
The concentration of the recovered cells was adjusted to 1×10^6 cells/mL with RPMI 1640 medium (SIGMA, R8758, serum-free), and an equal volume of NBT solution (PBS supplemented with 0.2% NBT and 20% FBS, which was used after filtration) was added thereto. TPA was added to the resulting mixture to a final concentration of 6 μM, and the mixture was then stirred. Thereafter, the mixture was left to stand at 37° C. for 30 minutes, and centrifuged at 1000 rpm for 5 minutes, followed by discarding the supernatant. Subsequently, the cells were resuspended in PBS, and applied onto a slide glass, followed by counting cells stained blue under the microscope.

HL60 cells [2] = test: DNA methylation level in HL60 cells; conditions: 10 days of culture, FIG. 7
HL60 cells [3] = test: Cytotoxicity test (mitochondrial activity level, counting of viable cells with WST-8); conditions: 3 days of culture, FIG. 1
Description: HL60 cells were cultured using a test medium (RPMI 1640 medium, 10% FBS, antibiotic-free) to the logarithmic growth phase in a CO: incubator (5% Cq, 37° C.). 2) Cytotoxicity Test (Evaluation of the Toxicity Based on the Viability, that is, the Survival Rate or the Death Rate, of Cells) To each well of a 96-well plate, 0.1 mL of HL6O cells were plated at a concentration of 5×10^4 cells/mL, and a test substance (7 serial dilutions: a 10-fold dilution series ranging from 10%; the test substance was preliminarily sterilized by filtration) was added to the well at the same time. After 3 days of the culture, a viable cell assay reagent SF (final concentration, 10%) was added to the cell suspension culture liquid, and viable cells were counted. The test was carried out in 3 replicates (n=3). The viability of the cells was evaluated using a viable cell counting reagent SF (WST-8) based on measurement of the absorbance.

HL60 cells [4] = test: Cell differentiation induction test, esterase staining (differentiation into monocytes); conditions: final concentration 1 μM
Description: as §1
Esterase staining was carried out as follows using an esterase staining kit (manufactured by Muto Pure Chemicals Co., Ltd.). The concentration of the recovered cells was adjusted to 1×10^6 cells/mL with PBS. […]

HL60 cells [5] = test: Counting of viable cells by trypan blue staining; conditions: positive control; solvent control 1.0×10^−5% DMSO; 5 days of culture; FIG. 8
Description: In each of T25 flasks, 5 mL of HL60 cells were seeded at 1×10^7 cells/flask. At the same time as the seeding, test substances (ethyl alcohol, retinoic acid, dimethyl sulfoxide, rotenone, SDW, and Examples 3 and 4) were fed to the flasks.
The addition of Example 3 to the medium was carried out after its sterilization by filtration. In Example 4, 10 mL of the test substance was warmed at 60° C. to evaporate the whole solvent, and 10 mL of sterile water was newly added thereto to dissolve the resultant. The resulting solution was sterilized by filtration, and then added to the medium. The retinoic acid to be added was provided as a concentrated solution containing retinoic acid at a concentration of 100 mM in ethyl alcohol, and the rotenone to be added was provided as a concentrated solution containing rotenone at a concentration of 100 mM in DMSO. […]
To 50 μL of a cell suspension culture liquid, 50 μL of a trypan blue solution was added, and the reaction was allowed to proceed for several minutes. Under the microscope, unstained cells and stained cells were counted using a hemocytometer. The number of dead cells (stained cells) per total number of cells was determined to calculate the number of live cells (cells/mL) and the dead cell ratio (%).

Which “differentiation ratio (ratio of NBT-stained cells)” value (HL60 cells [1]; final concentration 10 nM, decreased by half) does the source give for `C=C1/C(=C\C=C2/CCC[C@]3(C)[C@@H]([C@H](C)CCCC(C)(C)O)CC[C@@H]23)C[C@@H](O)C[C@@H]1O` [active vitamin D3, reference compound] here?
Its value is 4%.

How did the “differentiation ratio (ratio of NBT-stained cells)” value (HL60 cells [1]; 300 μg) turn out when `O=c1c(O)c(-c2ccc(O)cc2)oc2cc(O)cc(O)c12` [kaempferol] was run?
Its value is 3%.

What about the “differentiation ratios (NBT-stained cells) on Day 10 of the culture, change” value (HL60 cells [1]; Day 10 of the culture, FIG. 4) of the same molecule?
Its value is “decreased”.

What about the “differentiation ratio (NBT-stained cells), trend” value (HL60 cells [1]; after 5 days of culture, FIG. 3) of the same molecule?
Its value is “concentration-dependent improvement”.

And the “DNA methylation level in the HL60 cells” value (HL60 cells [2]; concentration 0.001%)?
The value was “increased”.

And the “DNA methylation level in the HL60 cells” value (HL60 cells [2]; concentration 10% (300 μg/mL))?
The value was “decreased”.

And the “mitochondrial activity (absorbance, viable cell count)” value (HL60 cells [3]; concentration 0.1% (30 ng/mL=0.03 μg/mL) to 10% (300 μg/mL))?
The value was “increased”.

And the “mitochondrial activity (absorbance, viable cell count)” value (HL60 cells [3]; concentration 3.2×10^−4% to 0.032%)?
Its value is “suppressed”.

How did the “differentiation ratio (ratio of NBT-stained cells)” value (HL60 cells [1]; final concentration 1 μM) turn out when `CC1=C(/C=C/C(C)=C/C=C/C(C)=C/C(=O)O)C(C)(C)CCC1` [retinoic acid] was run?
Its value is 68%.

What about the “differentiation into monocytes (ratio of esterase-stained cells)” value (HL60 cells [4]; Day 5 of the culture) of the same molecule?
The value was 2%.

And the “differentiation into monocytes (ratio of esterase-stained cells)” value (HL60 cells [4]; Day 10 of the culture)?
Its value is 14%.

How did the “viable cell count by trypan blue staining versus solvent control” value (HL60 cells [5]) turn out when `C=C(C)[C@H]1Cc2c(ccc3c2O[C@@H]2COc4cc(OC)c(OC)cc4[C@@H]2C3=O)O1` [rotenone] was run?
The value was “decreased to about half”.
